Experiments:
Assay in all cases: kinase selectivity panel
Assay type in all cases: biochemical
[1] = biological target: T1, MSK2 (Homo sapiens, UniProt O75676); settings: read-out: percentage of control activity (POC), MSK2
T1 construct: purchased Eurofins Pharma Discovery Services (KinaseProfiler; Cerep BioPrint panel)
Outline: (§1)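 Tested at 10 μM in duplicate within a panel of 125 representative kinases. For selected activities, IC50 values were then determined from 9 concentrations, each run in duplicate.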

[2] = biological target: T2, PAK2 (Homo sapiens, UniProt Q13177); settings: read-out: percentage of control activity (POC), PAK2
T2 construct: purchased Eurofins Pharma Discovery Services (KinaseProfiler; Cerep BioPrint panel)
Outline: as §1

[3] = biological target: T3, c-RAF (Homo sapiens, UniProt P04049); settings: read-out: percentage of control activity (POC), c-RAF
T3 construct: purchased Eurofins Pharma Discovery Services (KinaseProfiler; Cerep BioPrint panel)
T3 sequence (P04049 whole entry): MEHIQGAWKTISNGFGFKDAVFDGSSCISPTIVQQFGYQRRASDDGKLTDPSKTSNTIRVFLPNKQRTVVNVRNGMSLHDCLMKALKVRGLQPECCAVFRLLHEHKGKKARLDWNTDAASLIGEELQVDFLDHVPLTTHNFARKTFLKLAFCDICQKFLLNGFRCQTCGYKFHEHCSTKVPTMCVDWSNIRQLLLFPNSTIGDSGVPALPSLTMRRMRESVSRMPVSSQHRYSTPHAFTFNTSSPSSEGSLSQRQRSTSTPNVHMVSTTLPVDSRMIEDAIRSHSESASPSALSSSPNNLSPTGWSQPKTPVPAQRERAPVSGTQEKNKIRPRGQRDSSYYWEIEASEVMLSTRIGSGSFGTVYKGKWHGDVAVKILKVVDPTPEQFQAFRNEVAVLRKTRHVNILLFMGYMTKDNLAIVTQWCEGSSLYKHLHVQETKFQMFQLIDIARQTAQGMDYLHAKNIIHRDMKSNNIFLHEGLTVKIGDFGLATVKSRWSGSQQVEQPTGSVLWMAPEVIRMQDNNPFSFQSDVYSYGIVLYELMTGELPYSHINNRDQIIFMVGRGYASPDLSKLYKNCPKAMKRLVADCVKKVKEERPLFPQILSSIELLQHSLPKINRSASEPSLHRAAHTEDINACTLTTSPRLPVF
Outline: as §1

[4] = biological target: T4, DRAK1 (Homo sapiens, UniProt Q9UEE5); settings: read-out: percentage of control activity (POC), DRAK1
T4 construct: purchased Eurofins Pharma Discovery Services (KinaseProfiler; Cerep BioPrint panel)
T4 sequence (Q9UEE5 1-414): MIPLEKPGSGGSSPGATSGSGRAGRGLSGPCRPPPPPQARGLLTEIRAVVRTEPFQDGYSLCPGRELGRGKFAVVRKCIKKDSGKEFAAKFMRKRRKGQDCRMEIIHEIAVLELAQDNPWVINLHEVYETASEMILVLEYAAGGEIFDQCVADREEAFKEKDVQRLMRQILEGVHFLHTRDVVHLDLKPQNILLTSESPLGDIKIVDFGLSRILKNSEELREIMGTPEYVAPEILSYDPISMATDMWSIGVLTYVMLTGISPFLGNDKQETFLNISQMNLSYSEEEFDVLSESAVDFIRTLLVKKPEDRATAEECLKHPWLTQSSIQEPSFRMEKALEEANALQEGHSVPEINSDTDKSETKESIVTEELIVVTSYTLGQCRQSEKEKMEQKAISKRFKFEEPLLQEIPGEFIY
Outline: as §1

[5] = biological target: T5, FGFR3 (Homo sapiens, UniProt P22607); settings: read-out: percentage of control activity (POC), FGFR3
T5 construct: purchased Eurofins Pharma Discovery Services (KinaseProfiler; Cerep BioPrint panel)
T5 sequence (P22607 23-806): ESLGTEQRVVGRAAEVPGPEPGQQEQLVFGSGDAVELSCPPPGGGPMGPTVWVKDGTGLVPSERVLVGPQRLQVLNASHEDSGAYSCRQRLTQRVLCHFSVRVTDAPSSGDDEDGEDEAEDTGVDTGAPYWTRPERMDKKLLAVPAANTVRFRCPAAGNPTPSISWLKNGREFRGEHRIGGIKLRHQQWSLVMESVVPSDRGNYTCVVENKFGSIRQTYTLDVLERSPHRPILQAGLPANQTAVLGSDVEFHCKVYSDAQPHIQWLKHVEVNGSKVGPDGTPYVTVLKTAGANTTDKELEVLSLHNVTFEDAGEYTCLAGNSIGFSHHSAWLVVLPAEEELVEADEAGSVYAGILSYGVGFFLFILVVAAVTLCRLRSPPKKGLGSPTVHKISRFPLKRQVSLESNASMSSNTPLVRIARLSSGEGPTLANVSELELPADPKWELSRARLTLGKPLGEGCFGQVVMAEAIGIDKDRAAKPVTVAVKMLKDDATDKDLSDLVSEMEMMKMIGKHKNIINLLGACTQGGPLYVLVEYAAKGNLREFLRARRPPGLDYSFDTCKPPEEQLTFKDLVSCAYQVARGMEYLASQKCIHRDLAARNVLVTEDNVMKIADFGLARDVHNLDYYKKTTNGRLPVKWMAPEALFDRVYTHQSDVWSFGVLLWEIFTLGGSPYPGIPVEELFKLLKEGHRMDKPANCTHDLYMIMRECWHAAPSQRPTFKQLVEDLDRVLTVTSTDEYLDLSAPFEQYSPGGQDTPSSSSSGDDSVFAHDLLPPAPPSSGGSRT
Outline: as §1

[6] = biological target: T6, PKCε (Homo sapiens, UniProt Q02156); settings: read-out: percentage of control activity (POC), PKCε
T6 construct: purchased Eurofins Pharma Discovery Services (KinaseProfiler; Cerep BioPrint panel)
T6 sequence (Q02156 1-737): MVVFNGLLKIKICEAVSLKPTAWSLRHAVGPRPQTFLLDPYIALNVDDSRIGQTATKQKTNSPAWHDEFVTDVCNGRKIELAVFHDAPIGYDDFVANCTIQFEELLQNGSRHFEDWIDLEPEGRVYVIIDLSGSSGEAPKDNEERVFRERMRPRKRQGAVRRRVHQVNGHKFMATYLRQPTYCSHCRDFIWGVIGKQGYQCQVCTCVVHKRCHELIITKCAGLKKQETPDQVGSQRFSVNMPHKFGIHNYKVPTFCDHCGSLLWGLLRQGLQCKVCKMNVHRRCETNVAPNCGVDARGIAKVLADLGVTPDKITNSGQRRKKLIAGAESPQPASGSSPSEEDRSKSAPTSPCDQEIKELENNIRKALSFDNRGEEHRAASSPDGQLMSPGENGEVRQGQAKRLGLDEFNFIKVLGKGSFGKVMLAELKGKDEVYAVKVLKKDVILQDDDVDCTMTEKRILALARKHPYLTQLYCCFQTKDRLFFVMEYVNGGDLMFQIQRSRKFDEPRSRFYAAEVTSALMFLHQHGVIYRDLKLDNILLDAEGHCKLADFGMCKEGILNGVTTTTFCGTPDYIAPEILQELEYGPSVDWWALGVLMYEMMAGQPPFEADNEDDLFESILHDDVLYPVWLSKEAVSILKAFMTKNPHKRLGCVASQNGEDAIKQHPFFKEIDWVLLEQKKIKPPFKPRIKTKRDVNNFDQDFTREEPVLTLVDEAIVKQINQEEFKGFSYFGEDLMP
Outline: as §1

[7] = biological target: T7, JNK2α2 (Homo sapiens, UniProt P45984); settings: read-out: percentage of control activity (POC), JNK2α2
T7 construct: purchased Eurofins Pharma Discovery Services (KinaseProfiler; Cerep BioPrint panel)
T7 sequence (P45984 whole entry): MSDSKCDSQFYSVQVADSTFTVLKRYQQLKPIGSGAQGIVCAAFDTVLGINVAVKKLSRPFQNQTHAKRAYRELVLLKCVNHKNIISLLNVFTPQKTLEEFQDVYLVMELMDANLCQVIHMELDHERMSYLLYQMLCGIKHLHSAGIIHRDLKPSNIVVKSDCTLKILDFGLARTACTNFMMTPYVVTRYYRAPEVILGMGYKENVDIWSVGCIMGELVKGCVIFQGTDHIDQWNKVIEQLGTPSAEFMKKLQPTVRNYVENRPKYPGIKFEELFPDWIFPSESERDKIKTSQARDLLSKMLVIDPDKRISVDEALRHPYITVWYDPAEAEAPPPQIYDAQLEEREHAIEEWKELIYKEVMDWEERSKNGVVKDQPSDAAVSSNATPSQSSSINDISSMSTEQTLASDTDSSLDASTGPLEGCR
Outline: as §1

[8] = biological target: T8, PKCβII (Homo sapiens, UniProt P05771); settings: read-out: percentage of control activity (POC), PKCβII
T8 construct: purchased Eurofins Pharma Discovery Services (KinaseProfiler; Cerep BioPrint panel)
T8 sequence (P05771 1-673 isoform P05771-2): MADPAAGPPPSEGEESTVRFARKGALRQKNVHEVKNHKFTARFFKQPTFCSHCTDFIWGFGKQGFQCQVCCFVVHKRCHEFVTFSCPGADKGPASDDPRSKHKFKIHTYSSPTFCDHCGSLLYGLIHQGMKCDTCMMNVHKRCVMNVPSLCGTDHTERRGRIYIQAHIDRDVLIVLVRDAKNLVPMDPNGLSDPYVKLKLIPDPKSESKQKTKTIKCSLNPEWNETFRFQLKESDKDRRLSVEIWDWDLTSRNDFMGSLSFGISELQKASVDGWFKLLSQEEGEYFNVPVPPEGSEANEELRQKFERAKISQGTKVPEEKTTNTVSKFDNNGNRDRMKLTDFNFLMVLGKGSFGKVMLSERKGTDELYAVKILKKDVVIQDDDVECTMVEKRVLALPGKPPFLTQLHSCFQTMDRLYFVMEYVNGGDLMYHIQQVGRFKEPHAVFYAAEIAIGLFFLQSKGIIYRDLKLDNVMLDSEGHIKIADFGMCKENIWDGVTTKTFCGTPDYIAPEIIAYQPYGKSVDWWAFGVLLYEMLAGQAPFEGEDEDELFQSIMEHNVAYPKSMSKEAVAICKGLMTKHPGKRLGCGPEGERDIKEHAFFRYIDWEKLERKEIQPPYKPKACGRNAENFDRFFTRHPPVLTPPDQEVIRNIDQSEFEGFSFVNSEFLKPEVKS
Outline: as §1

[9] = biological target: T9, cSRC (Homo sapiens, UniProt P12931); settings: read-out: percentage of control activity (POC), cSRC
T9 construct: purchased Eurofins Pharma Discovery Services (KinaseProfiler; Cerep BioPrint panel)
T9 sequence (P12931 whole entry): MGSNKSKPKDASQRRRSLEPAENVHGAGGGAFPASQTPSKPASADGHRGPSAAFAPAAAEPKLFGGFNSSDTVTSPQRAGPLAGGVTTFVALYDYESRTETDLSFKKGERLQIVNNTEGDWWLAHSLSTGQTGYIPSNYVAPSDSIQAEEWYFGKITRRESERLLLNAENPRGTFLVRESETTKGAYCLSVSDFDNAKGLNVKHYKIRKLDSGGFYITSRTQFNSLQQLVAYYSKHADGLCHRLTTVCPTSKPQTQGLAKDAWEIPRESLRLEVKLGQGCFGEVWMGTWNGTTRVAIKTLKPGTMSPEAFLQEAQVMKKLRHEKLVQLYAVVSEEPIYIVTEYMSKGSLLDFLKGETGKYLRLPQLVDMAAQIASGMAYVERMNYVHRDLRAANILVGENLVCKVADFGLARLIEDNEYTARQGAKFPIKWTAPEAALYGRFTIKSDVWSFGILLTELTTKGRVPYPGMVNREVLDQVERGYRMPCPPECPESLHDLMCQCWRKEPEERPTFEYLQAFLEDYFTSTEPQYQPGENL
Outline: as §1

[10] = biological target: T10, TrkB (Homo sapiens, UniProt Q16620); settings: for remaining activity at 10 µM: read-out: percentage of control activity (POC), TrkB
T10 construct: purchased Eurofins Pharma Discovery Services (KinaseProfiler; Cerep BioPrint panel)
T10 sequence (Q16620 32-822): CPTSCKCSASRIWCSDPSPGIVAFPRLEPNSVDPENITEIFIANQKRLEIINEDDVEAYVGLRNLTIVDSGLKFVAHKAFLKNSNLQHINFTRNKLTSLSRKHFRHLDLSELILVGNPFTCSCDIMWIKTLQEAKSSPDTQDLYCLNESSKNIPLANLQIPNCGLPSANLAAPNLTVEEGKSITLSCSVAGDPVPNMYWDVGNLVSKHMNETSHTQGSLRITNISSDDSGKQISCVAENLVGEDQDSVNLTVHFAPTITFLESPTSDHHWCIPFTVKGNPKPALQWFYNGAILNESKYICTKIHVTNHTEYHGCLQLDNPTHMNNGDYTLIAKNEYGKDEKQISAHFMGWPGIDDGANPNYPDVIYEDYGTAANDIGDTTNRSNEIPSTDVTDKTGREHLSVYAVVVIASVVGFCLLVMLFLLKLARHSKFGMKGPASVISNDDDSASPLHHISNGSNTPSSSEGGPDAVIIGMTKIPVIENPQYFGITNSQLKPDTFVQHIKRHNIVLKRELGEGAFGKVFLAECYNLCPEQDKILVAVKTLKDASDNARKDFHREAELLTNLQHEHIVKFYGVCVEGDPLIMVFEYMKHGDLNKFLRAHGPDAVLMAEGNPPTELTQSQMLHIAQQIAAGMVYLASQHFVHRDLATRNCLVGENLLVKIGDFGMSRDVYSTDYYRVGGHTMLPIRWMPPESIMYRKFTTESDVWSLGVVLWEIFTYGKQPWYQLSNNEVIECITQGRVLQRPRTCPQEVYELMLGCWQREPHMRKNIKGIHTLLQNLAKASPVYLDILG
Outline: as §1

[11] = biological target: T11, Rsk4 (Homo sapiens, UniProt Q9UK32); settings: read-out: percentage of control activity (POC), Rsk4
T11 construct: purchased Eurofins Pharma Discovery Services (KinaseProfiler; Cerep BioPrint panel)
T11 sequence (Q9UK32 whole entry): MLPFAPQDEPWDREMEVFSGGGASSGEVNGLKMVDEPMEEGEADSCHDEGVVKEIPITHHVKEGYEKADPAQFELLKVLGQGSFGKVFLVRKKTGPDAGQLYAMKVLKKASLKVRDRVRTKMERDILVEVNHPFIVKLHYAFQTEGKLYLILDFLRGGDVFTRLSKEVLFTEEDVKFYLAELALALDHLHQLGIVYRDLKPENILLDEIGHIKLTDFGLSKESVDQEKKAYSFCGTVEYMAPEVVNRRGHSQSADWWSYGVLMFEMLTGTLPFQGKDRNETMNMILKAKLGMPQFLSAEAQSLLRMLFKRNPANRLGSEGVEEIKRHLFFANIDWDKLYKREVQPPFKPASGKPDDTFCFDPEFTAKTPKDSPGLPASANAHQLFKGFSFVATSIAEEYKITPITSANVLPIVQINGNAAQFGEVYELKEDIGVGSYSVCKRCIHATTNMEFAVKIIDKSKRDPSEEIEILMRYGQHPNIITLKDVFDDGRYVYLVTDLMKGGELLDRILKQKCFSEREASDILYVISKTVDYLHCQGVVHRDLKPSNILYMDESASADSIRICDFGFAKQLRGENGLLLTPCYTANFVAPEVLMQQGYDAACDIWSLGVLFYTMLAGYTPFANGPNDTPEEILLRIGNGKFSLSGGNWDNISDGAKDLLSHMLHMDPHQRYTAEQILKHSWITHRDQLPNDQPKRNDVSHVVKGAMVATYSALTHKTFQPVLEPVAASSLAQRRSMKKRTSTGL
Outline: as §1

[12] = biological target: T12, EGFR (Homo sapiens, UniProt P00533); settings: read-out: percentage of control activity (POC), EGFR
T12 construct: purchased Eurofins Pharma Discovery Services (KinaseProfiler; Cerep BioPrint panel)
Outline: as §1

[13] = biological target: T13, MAPKAP-K2 (Homo sapiens, UniProt P49137); settings: read-out: percentage of control activity (POC), MAPKAP-K2
T13 construct: purchased Eurofins Pharma Discovery Services (KinaseProfiler; Cerep BioPrint panel)
T13 sequence (P49137 whole entry): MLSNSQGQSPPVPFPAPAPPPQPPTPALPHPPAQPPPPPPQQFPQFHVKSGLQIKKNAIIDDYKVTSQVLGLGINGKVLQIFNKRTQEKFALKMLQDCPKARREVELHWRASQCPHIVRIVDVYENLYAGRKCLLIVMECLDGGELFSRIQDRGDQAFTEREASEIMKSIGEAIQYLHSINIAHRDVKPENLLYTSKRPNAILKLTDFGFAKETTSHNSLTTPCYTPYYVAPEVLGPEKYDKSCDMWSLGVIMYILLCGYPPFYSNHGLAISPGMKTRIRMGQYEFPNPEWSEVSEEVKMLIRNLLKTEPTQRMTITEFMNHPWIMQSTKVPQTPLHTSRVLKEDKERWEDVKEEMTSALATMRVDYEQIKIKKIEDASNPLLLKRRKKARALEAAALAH
Outline: as §1

[14] = biological target: T14, NLK (Homo sapiens, UniProt Q9UBE8); settings: read-out: percentage of control activity (POC), NLK
T14 construct: purchased Eurofins Pharma Discovery Services (KinaseProfiler; Cerep BioPrint panel)
T14 sequence (Q9UBE8 1-527): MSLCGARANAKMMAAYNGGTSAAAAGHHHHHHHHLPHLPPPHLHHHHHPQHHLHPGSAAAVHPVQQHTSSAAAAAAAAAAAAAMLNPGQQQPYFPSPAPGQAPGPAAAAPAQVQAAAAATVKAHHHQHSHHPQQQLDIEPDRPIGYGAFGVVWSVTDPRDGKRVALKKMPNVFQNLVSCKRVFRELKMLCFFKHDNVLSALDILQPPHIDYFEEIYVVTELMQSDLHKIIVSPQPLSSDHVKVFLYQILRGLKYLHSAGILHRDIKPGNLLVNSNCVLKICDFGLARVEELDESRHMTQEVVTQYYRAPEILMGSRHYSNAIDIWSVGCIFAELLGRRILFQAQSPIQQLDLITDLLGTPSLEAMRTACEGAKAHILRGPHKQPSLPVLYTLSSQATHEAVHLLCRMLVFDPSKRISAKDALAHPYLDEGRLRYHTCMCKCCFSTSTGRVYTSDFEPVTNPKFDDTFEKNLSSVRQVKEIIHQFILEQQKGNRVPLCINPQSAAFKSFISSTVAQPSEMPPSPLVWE
Outline: as §1

SMILES: CC(C)(C)N1CCC(c2cc(-c3ccc(F)cc3Cl)c3cc[n+]([O-])c(-c4c(Cl)cccc4Cl)c3n2)CC1 [compound 2]
- remaining activity at 10 µM [1]: 90%
- remaining activity at 10 µM [2]: 111%
- remaining activity at 10 µM [3]: 112%
- remaining activity at 10 µM [4]: 99%
- remaining activity at 10 µM [5]: 99%
- remaining activity at 10 µM [6]: 94%
- remaining activity at 10 µM [7]: 101%
- remaining activity at 10 µM [8]: 117%
- remaining activity at 10 µM [9]: 107%
- inhibition at 10 µM [10]: 75%
- remaining activity at 10 µM [10]: 25%
- remaining activity at 10 µM [11]: 102%
- remaining activity at 10 µM [12]: 96%
- remaining activity at 10 µM [13]: 108%
- remaining activity at 10 µM [14]: 86%

SMILES: Cc1ccc(C(=O)NCC2CC2)cc1-c1ccc2c(c1)NC(=O)C21CCCC1 [compound 3]
- remaining activity at 10 µM [1]: 91%
- remaining activity at 10 µM [2]: 89%
- remaining activity at 10 µM [3]: 54%
- remaining activity at 10 µM [4]: 98%
- remaining activity at 10 µM [5]: 92%
- remaining activity at 10 µM [6]: 102%
- remaining activity at 10 µM [7]: 94%
- remaining activity at 10 µM [8]: 103%
- remaining activity at 10 µM [9]: 103%
- remaining activity at 10 µM [10]: 96%
- remaining activity at 10 µM [11]: 103%
- remaining activity at 10 µM [12]: 91%
- remaining activity at 10 µM [13]: 106%
- remaining activity at 10 µM [14]: 99%

SMILES: Cn1cc(-c2cccc(-c3nc(C(=O)NC4C5CC6CC4CC(O)(C6)C5)c(N)nc3N)c2)cn1 (centres unmarked) [compound 4]
- remaining activity at 10 µM [1]: 96%
- remaining activity at 10 µM [2]: 87%
- remaining activity at 10 µM [3]: 52%
- remaining activity at 10 µM [4]: 89%
- remaining activity at 10 µM [5]: 88%
- remaining activity at 10 µM [6]: 87%
- remaining activity at 10 µM [7]: 98%
- remaining activity at 10 µM [8]: 110%
- remaining activity at 10 µM [9]: 69%
- remaining activity at 10 µM [10]: 57%
- remaining activity at 10 µM [11]: 110%
- remaining activity at 10 µM [12]: 95%
- remaining activity at 10 µM [13]: 107%
- remaining activity at 10 µM [14]: 85%

SMILES: CS(=O)(=O)N1CCN(c2ccc(Nc3ncc(C(N)=O)c(NC4CC4)n3)cc2)CC1 [compound 5]
- remaining activity at 10 µM [1]: 21%
- remaining activity at 10 µM [2]: 24%
- remaining activity at 10 µM [3]: 10%
- remaining activity at 10 µM [4]: 1%
- remaining activity at 10 µM [5]: 8%
- remaining activity at 10 µM [6]: 54%
- remaining activity at 10 µM [7]: 8%
- remaining activity at 10 µM [8]: 80%
- remaining activity at 10 µM [9]: 16%
- remaining activity at 10 µM [10]: 3%
- remaining activity at 10 µM [11]: 2%
- remaining activity at 10 µM [12]: 87%
- remaining activity at 10 µM [13]: 85%
- remaining activity at 10 µM [14]: 83%

SMILES: COc1c(NC(=O)c2ccc(C)c(-c3nnc4c(NCC(C)(C)C)nccn34)c2)cc(C(C)(C)C)cc1NS(C)(=O)=O [compound 7, reference compound]
- remaining activity at 10 µM [1]: 109%
- remaining activity at 10 µM [2]: 96%
- remaining activity at 10 µM [3]: 61%
- remaining activity at 10 µM [4]: 144%
- remaining activity at 10 µM [5]: 97%
- remaining activity at 10 µM [6]: 100%
- remaining activity at 10 µM [7]: 91%
- remaining activity at 10 µM [8]: 113%
- remaining activity at 10 µM [9]: 103%
- remaining activity at 10 µM [10]: 84%
- remaining activity at 10 µM [11]: 131%
- remaining activity at 10 µM [12]: 104%
- remaining activity at 10 µM [13]: 110%
- remaining activity at 10 µM [14]: 94%

Source: publication PMC5761851, “Application of a phenotypic drug discovery strategy to identify biological and chemical starting points for inhibition of TSLP production in lung epithelial cells” (PLoS ONE, 2018)
